In patent publication US6989158B1, “Gold-containing chemotherapeutic agents” (The Curators of the University of Missouri, priority 1999, dated 2006):

Key:
[1] = system: interperitoneal P388 leukemia; conditions: in vivo; cited from earlier work
[2] = Deaths of tumor bearing mice at larger doses; assay type: in vivo; conditions: doses significantly larger than in the table (20–25 μg/kg)
[3] = system: HCT-15 cells; experiment: Histogram (cell cycle) studies; assay type: cell-based; conditions: 200 or 40 μg/ml, two days incubation
Method: Histogram studies were carried out using HCT-15 cells. In the enclosed figure that summarize histogram results the cells are numbered as follows: HCT-80 is the control; HCT-81 refers to a sample with 200 μg/ml of the gold compound; HCT-82 refers to a sample with 40 μg/ml of gold compound.
HCT-15 cells were incubated in 5% CO2 incubator for two days. Then the cells were harvested and analyzed using fluorescent techniques. […] This finding is in sharp contrast to he cytotoxic side effects of cisplatin which is known to cause disassociation of many phases. Additionally, most agents which are cytotoxic, block S or M+G2 phase after culturing for two days. The mode of cell suppression via G1 phase elongation, as observed for the gold compound, therefore functions differently.

[4] = Side effects in mice models; assay type: in vivo; conditions: preliminary findings
[5] = system: cells derived from human colon carcinoma; experiment: in vitro tumor growth suppression, cells derived from human colon carcinoma; assay type: cell-based; conditions: specific human cancer cell lines
Text: When the non-radioactive analogue of the gold complex of THP [(Au(THP)4)]

[6] = system: Meth/A cells; experiment: In vivo study, survival of Meth/A tumor bearing mice; design: species or system Balb/C mice
[7] = system: solid tumor models; conditions: in vivo; cited from earlier work
[8] = in vivo; cited from earlier work
[9] = system: peritoneal cancer cells; conditions: in vivo; cited from earlier work

## CC[PH](CC)(CC)[Au][S][C@@H]1O[C@H](COC(C)=O)[C@@H](OC(C)=O)[C@H](OC(C)=O)[C@H]1OC(C)=O [Auranofin, (2,3,4,6-tetra-O-aceytl-1-thio-β-D-glucopyranosato-S)-(triethylphosphine) gold(I)]
[1]
  activity against interperitoneal P388 leukemia: active

## N.N.[Cl][Pt][Cl] [Cisplatin, cisplatin]
[2]
  deaths of tumor bearing mice: resulted in the death of animals

## OCP(CO)CO.OCP(CO)CO.OCP(CO)CO.OCP(CO)CO.[Au+].[Cl-] [[Au(THP)4]Cl]
[3]
  effect on G1 phase of the cell cycle: elongates G1 phase
[4]
  toxic side effects: no toxic cardiovascular or naphrotoxic side effects
[2]
  deaths of tumor bearing mice: did not result in deaths of tumor bearing mice
[5]
  tumor cell suppression: remarkable activity in suppressing tumor growth
[6]
  survival of tumor bearing mice: remarkable survival of tumor bearing mice

## [Au+].[Cl-].c1ccc(P(CCP(c2ccccc2)c2ccccc2)c2ccccc2)cc1.c1ccc(P(CCP(c2ccccc2)c2ccccc2)c2ccccc2)cc1 [[Au(dppe)2]Cl]
[7]
  activity against solid tumor models: only slightly active
[8]
  toxicity in preclinical toxicology studies: cardiotoxicity
[9]
  activity against peritoneal cancer cells: marked activity
